The subject of test [1] is C57BL/6 mice. The test can be described thus: Number of autonomic activity of mice (YLS-1A autonomic activity recorder). The following applies: for Effect on autonomic activity of mice (in words): 10 mg/kg intragastric, one week, compared with the solvent control group; for Number of Autonomic activity (time): 10 mg/kg intragastric once daily, counted 30 min after administration at 6th day. The test is classed as in vivo. The method, then:
110 mice were randomly selected to observe the number of their autonomic activity. The mice was placed into the YLS-1A multi-functional mice autonomic activity recorder, and after 1 min of adaption, the mice's activity was counted within a time period from the end of 1st min to 4th min. 96 mice with the number of autonomic activity between 70˜140 were screened out, divided randomly into 8 groups, and intragastrically administrated with the drug compounds at a dose listed in Table 1, one time daily for 7 days consecutively. The solvent control group was administrated with 2% Tween-80 aqueous solution in the same volume. All mice were placed into the autonomic activity recorder 30 min after administration at 6th day. After 1 min of adaption, the mice's activity was counted within a time period from the end of 1st min to 4th min.
(§1) 130 mice were randomly selected to observe the number of their autonomic activity. The method was the same with that of Experiment 1. 108 mice with the number of autonomic activity between 70˜140 were screened out, divided randomly into 9 groups, and intragastrically administrated with the drug compounds at a dose listed in Table 2, one time daily for 7 days consecutively. The solvent control group was administrated with 2% Tween-80 aqueous solution in the same volume. 30 min after administration at 6th day, the number of the autonomic activity of each mouse was observed. 30 min after administration at 7th day, the immobility time in tail suspension test was observed. The method was the same with that in Experiment 1.

Test [2] has as its system C57BL/6 mice. The test can be described thus: "Acquired despair" depression model of tail suspension test in mice. Conditions: 10 mg/kg intragastric for 7 days; compared with the solvent control group. The format is in vivo. The method, then: 30 min after administration at 7th day, the mice was fixed on a sustainer with a rubberized cloth at 1 cm close to the end of the tail of mice, making the mice hanged upside down. The head of the mice was about 30 cm above the table and its sight was separated from the neighboring mouse with a plate. Usually, the mice might manage to struggle in hopes of overcoming the abnormal body position. […] The accumulated immobility time within 6 min of each mouse was observed, which was regarded as “despair time”.
as §1

Test [3] has as its system C57BL/6 mice. The test can be described thus: Depression model test of anti-blepharoptosis caused by reserpine (akinesia, blepharoptosis, shell temperature). The format is in vivo. Conditions: for Degree of eye-closure: score 0-4 one hour after reserpine; for responders at 10 mg/kg: Mus musculus, po, 1 h, one hour after reserpine, 7.5 cm circle, 15-second observation, read-out: “out-of-circle” ratio. The method, then: 120 male C57BL/6 mice were randomly selected to observe the number of their autonomic activity. The mice was placed into the YLS-1A multi-functional mice autonomic activity recorder, and after 1 min of adaption, the activity of the mice was counted within a time period from the end of 1st min to 4th min. 96 mice with the number of autonomic activity between 70˜140 were screened out, divided randomly into 8 groups, and intragastrically administrated with the drug compounds at a dose listed in Table 3, one time daily for 7 days consecutively. The solvent control group was administrated with 2% Tween-80 aqueous solution in the same volume. Except the normal control group, 30 min after the last administration, each group was injected intraperitoneally with reserpine at a dose of 4 mg/kg. Next, akinesia, blepharoptosis and shell temperature were observed.
I Akinesia: one hour after intraperitoneal injection of reserpine, the mice were placed at the center of a circle with a diameter of 7.5 cm for a 15-second observation to calculate the “out-of-circle” ratio.
II Blepharoptosis: one hour after intraperitoneal injection of reserpine, the eye closure of mice was observed and scored by the following standard: eyelids open, 0; eyelids ¼ closed, 1; eyelids 2/4 closed, 2; eyelids ¾ closed, 3; eyelids closed completely, 4.
III Shell temperature: two hours after intraperitoneal injection of reserpine, the shell temperature of the abdomen of the mice was measured.
120 C57BL/6 mice were randomly selected to observe the number of their autonomic activity. The method was the same with that of Experiment 1. 100 mice with the number of autonomic activity between 70˜140 were screened out, divided randomly into 10 groups, and intragastrically administrated with the drug compounds at a dose listed in Table 4, one time daily for 7 days consecutively. The mice in the normal group and the solvent control group were administrated with 2% Tween-80 aqueous solution in the same volume. Except the normal control group, 30 min after the last administration, each group was injected intraperitoneally with reserpine at a dose of 4 mg/kg. Next, akinesia, blepharoptosis and shell temperature were observed. Observation method was the same with that of Experiment 1.

Test [4] deals with C57BL/6 mice. The test is described as follows: Forced swimming experiment in mice. The test is classed as in vivo. The following applies: for Immobility time in the forced swimming test in mice(s): 10 mg/kg intragastric once daily for 7 days, 30 min after last administration, end of 2nd min to 6th min; for Effect on immobility time in the forced swimming test (in words): within the dosage range (5-10 mg/kg), compared with the solvent control group. The method, then:
After 1˜2 days of adaptive feed, 80 male C57BL/6 mice, aged 6˜8 weeks and weighing 18˜22 g, were placed into the YLS-1A multi-functional mice autonomic activity recorder. After 1 min of adaption, the activity of the mice was counted within a time period from the end of 1st min to 4th min. 60 mice with the number of autonomic activity between 70˜140 were screened out, divided randomly into 6 groups, and intragastrically administrated with the drug compounds at a dose listed in Table 5, one time daily for 7 days consecutively. The solvent control group was administrated with 2% Tween-80 aqueous solution in the same volume. After the administration at 6th day, the mice were placed into a cylindrical aquarium with a water depth of 10 cm and 25° C. to force the mice to swim. After 15 min, the mice were taken out, dried and returned to the cage. 24 hours later, 30 min after the last intragastrical administration, the mice were placed into a glass bottle with a diameter of 10 cm, a height of 30 cm and a water depth of 10 cm, and the temperature of the water in the bottle was at 25° C. The mice were separated with an opaque partition, so as not to influence each other. After 2 min of adaption, an accumulated immobility time from the end of 2nd min to 6th min was recorded.

In the next test the test system is mice. The test is described as follows: Anti-depression effect in the tested models (overall conclusion). The test is classed as in vivo. Conditions: in the tested model at the tested dose. The source says: Based on the aforesaid experiments, the following conclusion can be drawn: • 1.
The conditions of test [5]: Chinese patent application 201010169679.9; cited from earlier work.
The mark [6] stands for this setting: 10 mg/kg intragastric 7 days, compared with the solvent control group.
[7] abbreviates: 10 mg/kg, compared with the solvent control group.
The mark [8] stands for this setting: Experiment 2, 10 mg/kg intragastric 7 days, reserpine 4 mg/kg i.p., abdomen, two hours after reserpine, ±SD.
Where [9] appears, read: Experiment 2, 10 mg/kg intragastric 7 days, reserpine 4 mg/kg i.p., ±SD.
[10] abbreviates: Experiment 2, 10 mg/kg intragastric 7 days, reserpine 4 mg/kg i.p.

The structures appear in SMILES notation. Entries after “also recorded” stand apart in the source; their conditions may differ. Like-named read-outs stand apart in the source and are kept apart here.

Turning to `O=C(/C=C/c1cc2c(c(C(F)(F)F)c1)OCO2)N1CCCCC1` [Compound I-10], in the test on C57BL/6 mice [1], the “Effect on autonomic activity of mice (in words)” value was “had no effect”. Further, the “Number of Autonomic activity (time)” value in the test on C57BL/6 mice [1] (Experiment 2) stood at 95.30 ± 15.06 time. Further, the “Effect on immobility time in tail suspension test (in words)” value with C57BL/6 mice [2] was “reduce the immobility time of the mice in tail suspension test significantly; also recorded: significantly shorten the immobility time”. Further, the “Blepharoptosis, “out-of-circle” ratio and shell temperature after reserpine (effect in words)” value with C57BL/6 mice [3] (setting [6]) was “antagonizing the decrease of shell temperature, akinesia and improving the degree of eye closure”. The “Degree of eye closure / blepharoptosis after reserpine compared with I-1 (in words)” value with C57BL/6 mice [3] (10 mg/kg, compared with I-1) is given as “increased improvement”. In addition, in the test with C57BL/6 mice [3] (setting [7]), the “Blepharoptosis after reserpine (effect in words)” value was “improve blepharoptosis of the mice significantly”; the “Shell temperature and “out-of-circle” ratio after reserpine (effect in words)” value is recorded as “to a certain degree but without statistically significant difference”. Also, the “Change in the shell temperature (T ° C.)” value in the test on C57BL/6 mice [3] (setting [8]) worked out at 27.15 ± 1.20 °C. Besides, the Degree of eye-closure in the test on C57BL/6 mice [3] (setting [9]) is 1.80 ± 1.32. Moreover, the responders at 10 mg/kg in the test with C57BL/6 mice [3] (setting [10]) was found to be 30%. Besides, in the test on C57BL/6 mice [4], the “Immobility time in the forced swimming test in mice(s)” value is reported as 83.07 ± 31.03 s and the “Effect on immobility time in the forced swimming test (in words)” value is “shortening the immobility time; also recorded: shorten the immobility time”. In the test with mice, the “Anti-depression effect compared with the pharmacologic effect of I-1 (in words)” value was “increased to some degree”.

Consider `O=C(c1cc2c(c(C(F)(F)F)c1)OCO2)N1CCCCC1` [Compound I-13, 1-(5-trifluoromethyl-3,4-methylenedioxybenzoyl)-piperidine], for which the “Effect on autonomic activity of mice (in words)” value with C57BL/6 mice [1] was “had no effect”. The “Number of Autonomic activity (time)” value in the test with C57BL/6 mice [1] (Experiment 2) worked out at 87.40 ± 22.39 time. Also, the “Effect on immobility time in tail suspension test (in words)” value with C57BL/6 mice [2] is listed as “reduce the immobility time of the mice in tail suspension test significantly; also recorded: significantly shorten the immobility time”. The “Blepharoptosis, “out-of-circle” ratio and shell temperature after reserpine (effect in words)” value in the test with C57BL/6 mice [3] (setting [6]) was “remarkably improve; also recorded: antagonizing the decrease of shell temperature, akinesia and improving the degree of eye closure”. In addition, the “Blepharoptosis, shell temperature and “out-of-circle” ratio compared with Compound I-1 (in words)” value in the test with C57BL/6 mice [3] (10 mg/kg, compared with I-1, p<0.05, p<0.01) is listed as “significantly improved effect”. Further, in the test on C57BL/6 mice [3] (10 mg/kg, compared with fluoxetine, p<0.05), the “Improvement in eye closure and shell temperature compared with fluoxetine (in words)” value is listed as “better effect to a certain degree”. In the test on C57BL/6 mice [3] (10 mg/kg, within the experiment), the “Improving akinesia, blepharoptosis and shell temperature: ranking among the tested compounds (in words)” value is given as “better effects”. In addition, the “Change in the shell temperature (T ° C.)” value in the test on C57BL/6 mice [3] (setting [8]) was 30.20 ± 0.95 °C. The compound also yielded a Degree of eye-closure in the test with C57BL/6 mice [3] (setting [9]) of 0.90 ± 0.88. Further, the responders at 10 mg/kg in the test on C57BL/6 mice [3] (setting [10]) is 70%. Further, in the test with C57BL/6 mice [4], the “Immobility time in the forced swimming test in mice(s)” value amounted to 76.00 ± 32.32 s and the “Effect on immobility time in the forced swimming test (in words)” value is on record as “shortening the immobility time; also recorded: shorten the immobility time”. Further, the “Anti-depression effect compared with the pharmacologic effect of I-1 (in words)” value in the test on mice is “increased to some degree”.

Regarding `COc1cc(/C=C/C(=O)NCC(C)C)cc2c1OCO2` [Compound I-1, N-isobutyl-5′-methoxy-3′,4′-methylenedioxy cinnamamide], the “Number of Autonomic activity (time)” value with C57BL/6 mice [1] (Experiment 1, end of 1st min to 4th min) stood at 113.92 ± 14.24 time. Also, the “Blepharoptosis, “out-of-circle” ratio and shell temperature after reserpine (effect in words)” value with C57BL/6 mice [3] (setting [6]) is “improved significantly; also recorded: remarkably improve”. The “Change in the shell temperature (ΔT ° C.)” value in the test with C57BL/6 mice [3] (Experiment 1, 10 mg/kg intragastric 7 days, reserpine 4 mg/kg i.p., abdomen, two hours after reserpine, ±SD) turned out to be 2.05 ± 0.24 °C. For the same compound, the Degree of eye-closure was 2.67 ± 0.89 with C57BL/6 mice [3] (Experiment 1, 10 mg/kg intragastric 7 days, reserpine 4 mg/kg i.p., ±SD) and 2.91 ± 0.75 in the test on C57BL/6 mice [3] (setting [9]). In the test with C57BL/6 mice [3] (setting [8]), the “Change in the shell temperature (T ° C.)” value is 27.80 ± 0.61 °C. In addition, the responders at 10 mg/kg was found to be 17% in the test on C57BL/6 mice [3] (Experiment 1, 10 mg/kg intragastric 7 days, reserpine 4 mg/kg i.p.) and 10% with C57BL/6 mice [3] (setting [10]). Besides, the “Anti-depressive effect in animal experiments (in words)” value in test [5] is listed as “significant anti-depressive effect”.

The record behind these values is US10071989B2, “Substituted cinnamamide derivative, preparation method and use thereof” (TASLY PHARMACEUTICAL GROUP CO., LTD., priority 2011, dated 2018).
